This is an account of results in patent US7749981B2, “Drug-eluting stents coated with non-nucleotide P2Y12 receptor antagonist compound” (Inspire Pharmaceuticals, Inc., priority 2005, dated 2010).

Like-named read-outs stand apart in the source and are kept apart here.

This test has as its system washed human platelets. Put plainly: Inhibition of ADP-induced platelet aggregation in washed human platelets. The note with it: for activity as antagonists of P2Y12-mediated platelet aggregation (in words): comment on Table 1 data; for IC50: agonist challenge (ADP) typically 1-5 μM, average of two experiments or more. Format: cell-based. As for the experimental part:
Isolation of Platelets: Human blood is obtained from informed healthy adult volunteers. Blood is collected into one-sixth volume of acid/citrate/dextrose (ACD) buffer (85 mM sodium citrate, 65 mM citric acid, and 100 mM glucose). Collected blood is placed in a water bath at 37° C. for 30 minutes. Blood is then centrifuged at 275×g for 16 minutes at room temperature and the platelet-rich plasma is removed and centrifuged at 2200×g for 13 minutes at room temperature. The platelet pellet is resuspended in 40 mL of HEPES-buffered Tyrode's solution (137 mM NaCl, 2.7 mM KCl, 1 mM MgCl2, 2 mM CaCl2, 12 mM NaHCO3, 0.36 mM NaH2PO4, 5.5 mM glucose, 5 mM HEPES pH 7.4, 0.35% bovine serum albumin or 0.35% human serum albumin) containing 10 U/mL heparin and 5 μM (final concentration) prostaglandin 12 (PGI2). The platelet suspension is incubated in a 37° C. water bath for 10 minutes and then 5 μM (final conc.) PGI2 is added just before centrifugation at 1900×g for 8 minutes. The resulting pellet is resuspended in 40 mL of HEPES-buffered Tyrode's solution containing 5 μM (final concentration) PGI2 and then is incubated for 10 minutes in a 37° C. water bath. A small aliquot (500 μL) of the platelet suspension is removed for platelet counting. Prior to centrifugation 5 μM (final concentration) PGI2 is added to the suspension and then the suspension is centrifuged at 1900×g for 8 minutes. The pellet is resuspended at a density of 5×10^8 cells/mL in HEPES-buffered Tyrode's solution containing 0.05 U/mL apyrase.
Aggregation Studies: ADP-induced platelet aggregation is determined by measuring the transmission of light through a 0.5 ml suspension of stirred (1000 rpm) washed platelets in a lumi-aggregometer at 37° C. (Chrono-Log Corp. Havertown, Pa.). The baseline of the instrument is set using 0.5 ml of Hepes-buffered Tyrode's solution. Prior to aggregation measurements, the platelet suspension is supplemented with 1 mg/ml fibrinogen. Platelet aggregation is initiated by the addition of indicated concentrations of ADP or other agonists, and the light transmission is continuously recorded for at least 8 min. When inhibitors of platelet aggregation are tested, platelets are incubated for 2 min in the presence of indicated concentrations of inhibitor before addition of ADP or other agonists, and the response is recorded for at least 8 min. The potency of agonists and inhibitors of platelet aggregation is calculated from both the rate of aggregation and the maximal extent of aggregation obtained for each determination by fitting the data to a four-parameter logistic equation using the GraphPad software package (GraphPad Corp. San Diego, Calif.).
IC50 values represent the concentration of antagonist necessary to inhibit by 50% the aggregation elicited by a given concentration of ADP.
Platelet IC50 data were determined using washed human platelets, according to the protocol of example 14. Agonist challenge (ADP) typically in the range of 1-5 μM.

In general, IC50 refers to the concentration that gives 50% inhibition. For `CCNC(=O)Nc1ncnc2c1ncn2C1CC(CNC(=O)c2ccccc2C(=O)O)C2OC(C=Cc3ccccc3)OC21` (stereo not drawn) [Compound 239, N-{6-[6-(3-Ethyl-ureido)-purin-9-yl]-2-trans-styryl-tetrahydro-cyclopenta[1,3]dioxol-4-ylmethyl}-phthalamic acid], under “washed human platelets”, the “activity as antagonists of P2Y12-mediated platelet aggregation (in words)” value was “show potent activity”. The 50% inhibitory concentration (IC50) (read-out: PLATELET DATA IC50 (uM) Washed Platelets, washed human platelets) was 0.086 µM.

With `CCNC(=O)Nc1ncnc2c1ncn2C1CC(COCc2ccsc2C(=O)O)C2OC(C=Cc3ccccc3)OC21` (stereo not shown) [Compound 298, 3-{6-[6-(3-Ethyl-ureido)-purin-9-yl]-2-styryl-tetrahydro-cyclopenta[1,3]dioxol-4-ylmethoxymethyl}-thiophene-2-carboxylic acid], the 50% inhibitory concentration (IC50) (Homo sapiens, Platelet, read-out: PLATELET DATA IC50 (uM) Washed Platelets, washed human platelets) is 0.081 µM. Besides, the “activity as antagonists of P2Y12-mediated platelet aggregation (in words)” value (washed human platelets) is reported as “are active”.
